From patent US20060009918A1, “Methods and materials for enhancing the effects of protein modulators” (priority 2004, published 2006)

Target: T1, carbonic anhydrase (bovine erythrocyte, Sigma Chemical Company, mixture of isozymes) (Bos taurus, UniProt P00921)
T1 construct: purchased Sigma Chemical Company; host or cells: bovine erythrocyte
Assay: Binding constants by isothermal titration calorimetry
Procedure: The binding constants of these complexes with carbonic anhydrase (bovine erythrocyte, Sigma Chemical Company, mixture of isozymes) were determined employing isothermal titration calorimetry (25 mM HEPES buffer, pH=7.0), and the results are presented in Table 1.
The titration procedures employing isothermal titration calorimetry were carried out employing the instrument ITC-4200 (Calscorp Inc., Provo, Utah). The reference cell (volume: 1.32 mL) was filled with 25 mM HEPES buffer, pH=7.0. Carbonic anhydrase was taken in the sample cell (1.32 mL, […] protein in 25 mM HEPES buffer, pH=7.0). The copper complexes (1 mM) were dissolved in the same buffer and were added to the enzyme solution (42×5 μL injections). Heats of dilution for the complexes were separately determined by injecting the solution of the complexes in buffer (taken in the sample cell). The heats of dilution were subtracted from the titration data files, and the resultant data were processed by the software provided by the manufacturer (Bind Works 3.0).

[1] = isothermal titration calorimetry, 25 mM HEPES buffer, pH=7.0

T1 sequence (P00921 2-260 limits assumed): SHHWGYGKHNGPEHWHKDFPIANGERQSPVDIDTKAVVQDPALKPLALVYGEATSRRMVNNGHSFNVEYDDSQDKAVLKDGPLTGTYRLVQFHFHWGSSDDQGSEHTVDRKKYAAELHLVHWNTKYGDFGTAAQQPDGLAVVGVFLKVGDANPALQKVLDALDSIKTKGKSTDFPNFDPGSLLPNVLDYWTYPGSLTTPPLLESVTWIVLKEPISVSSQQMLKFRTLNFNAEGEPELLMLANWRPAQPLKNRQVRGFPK

In the case of `NS(=O)(=O)c1ccccc1` [Control 6, Benzene sulfonamide, reference compound], the Kd (carbonic anhydrase, summary statement) is reported as 120 µM, the Binding constant [1] is reported as “(9.0 ± 0.1) × 10^3” and the Enthalpy [1] is reported as -131 ± 6.69 kJ/mol. For the same compound, the “affinity for the enzyme (in words)” value (titration with the enzyme) was “weak affinity”.
